The target in one assay is Stromelysin (Homo sapiens, UniProt P08254). Description: in vitro particle concentration fluorescence assay, inhibition of stromelysin. The format is biochemical. The note with it: pH 7.5, room temperature, read-out: Stromelysin Ki (MMP Inhibition Constants). As for the experimental part:
(§1) Inhibitory activity is evaluated in one or more of the MMP enzymes (stromelysin, gelatinase, and collagenase) in vitro using particle concentration fluorescence assay. An inhibitor binds to MMP enzymes which prevents the degradation of a substrate by stromelysin, gelatinase, or collagenase. The substrate has attached to it a fluorescein and a biotin moiety. The intact substrate then binds to an avidin-coated particle via the biotin moiety. Once the particle is washed and dried, a fluorescent signal is generated since the fluorescent group is attached to the particle. Without an inhibitor present, the substrate is degraded by MMP enzymes and the fluorescein group is removed, therefore, no fluorescent signal can be detected. Testing compounds are dissolved in DMSO to the desired concentration, then the solutions are diluted to 1:5 with MMP buffer (50 mM Tris-HCl, pH 7.5; 150 mM NaCl; 0.02% NaN3). Serial two-fold dilutions of each compound are prepared. A concentrated, activated enzyme solution is transferred into each plate of the testing compounds, and the mixture is incubated at room temperature for 15 minutes. Thawed MMP substrate is then added into all plates, and the plates are incubated in the dark for 1-3 hours at room temperature. At this point, the substrate mixture is mixed with 0.1% avidin-coated polystyrene particles. After 15 minutes, the fluorescence values are measured following filtration and washing of the beads. Ki values are then calculated.

The target of a further assay is Gelatinase. Briefly: in vitro particle concentration fluorescence assay, inhibition of gelatinase. To be noted: pH 7.5, room temperature, read-out: Gelatinase Ki (MMP Inhibition Constants). The class given is biochemical. The procedure:
as §1

pKi: −log10 of the molar value.

Sequence of Stromelysin (P08254 100-477): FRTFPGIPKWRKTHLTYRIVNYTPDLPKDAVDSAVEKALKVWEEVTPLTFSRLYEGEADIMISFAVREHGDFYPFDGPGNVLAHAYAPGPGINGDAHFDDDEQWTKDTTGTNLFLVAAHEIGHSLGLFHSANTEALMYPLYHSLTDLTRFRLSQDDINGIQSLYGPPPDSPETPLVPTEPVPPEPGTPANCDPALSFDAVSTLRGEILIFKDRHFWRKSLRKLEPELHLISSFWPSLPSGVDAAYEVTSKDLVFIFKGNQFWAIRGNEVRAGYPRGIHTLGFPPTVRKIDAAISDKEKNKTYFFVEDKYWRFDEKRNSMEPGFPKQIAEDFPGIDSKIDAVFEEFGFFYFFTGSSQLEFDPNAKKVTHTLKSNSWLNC

With `Cc1ccc(S(=O)(=O)CC(CS(=O)(=O)c2ccc(C)cc2)C(=O)NO)cc1` [Example 9, N-hydroxy-2-[(4-methylbenzenesulfonyl)methyl]-3-(4-methylbenzenesulfonyl)-propionamide], the pKi at Stromelysin was 6.89; on Gelatinase, 8.42.
For `CCCCOc1ccc(S(=O)(=O)CC(CN2C(=O)CN(CCCC)C2=O)C(=O)NO)cc1` (stereo not drawn) [Example 14, N-hydroxy-2-[methyl-3-(1-butylhydantoin)]-3-(4-butoxybenzenesulfonyl)-propionamide], the results for the pKi at Stromelysin and at Gelatinase were 8.74 and 10.04, respectively.
Regarding `CCCCCCCCS(=O)(=O)CC(CS(=O)(=O)c1ccc(OC)cc1)C(=O)NO` (racemic) [Example 12, N-hydroxy-2-(n-octylsulfonylmethyl)-3-(4-methoxybenzenesulfonyl)-propionamide], the pKi is 8.27 on Stromelysin and 9.09 on Gelatinase.
As to `COc1ccc(S(=O)(=O)CC(Cc2ccccc2)C(=O)NO)cc1` (stereo not drawn) [Example 1, N-hydroxy 2-[(4-methoxybenzenesulfonyl)methyl]-3-phenyl-propionamide], the pKi is 7.31 on Stromelysin and 8.04 on Gelatinase.
The matching figures for `COc1ccc(S(=O)(=O)CCCC(CS(=O)(=O)c2ccc(OC)cc2)C(=O)NO)cc1` (stereo not drawn) [Example 11, N-hydroxy-2-[(4-methoxybenzenesulfonyl)-methyl]-5-(4-methoxybenzenesulfonyl)-pentanamide]: 9.00 and 9.00.
With `O=C(NO)C(Cc1ccccc1)CS(=O)(=O)c1ccccc1` (stereo not drawn) [Example 2, N-hydroxy 2-[(benzenesulfonyl)methyl]-3-phenyl-propionamide], the pKi at Stromelysin was 5.96; on Gelatinase it was 7.06.
With `COc1ccc(S(=O)(=O)CC(CN2C(=O)CN(C)C2=O)C(=O)NO)cc1` (stereo not drawn) [Example 13, N-hydroxy-2-[methyl-3-(1-methylhydantoin)]-3-(4-methoxybenzenesulfonyl)-propionamide], the negative logarithm of the Ki (pKi) at Stromelysin is 7.77; on Gelatinase it was 8.89.
Regarding `CC(CS(=O)(=O)c1ccccc1)C(=O)NO` (stereo not drawn) [Example 3, N-hydroxy 2-[(benzenesulfonyl)methyl]-propionamide], the negative-log Ki (pKi) at Stromelysin is 5.44; at Gelatinase, 7.09.
On to `CCCCCCCCS(=O)(=O)CC(CS(=O)(=O)CCCCCCCC)C(=O)NO` [Example 8, N-hydroxy-2-[(n-octylsulfonyl)methyl]-3-(n-octylsulfonyl)-propionamide], for which the pKi is 6.36 on Stromelysin and 6.72 at Gelatinase.
The matching figures for `COc1ccc(S(=O)(=O)CC(CS(=O)(=O)c2ccc(OC)cc2)C(=O)NO)cc1` [Example 4, N-hydroxy-2-[(4-methoxybenzene-sulfonyl)methyl]-3-(4-methoxybenzenesulfonyl)-propionamide]: 8.41 and 9.72.
On to `O=C(NO)C(CS(=O)(=O)c1ccc(Br)cc1)CS(=O)(=O)c1ccc(Br)cc1` [Example 6, N-hydroxy-2-[(4-bromobenzenesulfonyl)methyl]-3-(4-bromobenzenesulfonyl)-propionamide], for which the results for the pKi at Stromelysin and on Gelatinase were 7.04 and 8.60, respectively.
In the case of `O=C(NO)C(CS(=O)(=O)c1ccc(Cl)cc1)CS(=O)(=O)c1ccc(Cl)cc1` [Example 5, N-hydroxy-2-[(4-chlorobenzenesulfonyl)methyl]-3-(4-chlorobenzenesulfonyl)-propionamide], the pKi on Stromelysin is 7.14; on Gelatinase it was 8.72.
For `CCCCS(=O)(=O)CC(CS(=O)(=O)CCCC)C(=O)NO` [Example 7, N-hydroxy-2-[(n-butylsulfonyl)methyl]-3-(n-butylsulfonyl)-propionamide], the pKi on Stromelysin was 6.00; at Gelatinase, 6.46.
In the case of `O=C(NO)C(CS(=O)(=O)c1ccccc1)CS(=O)(=O)c1ccccc1` [Example 10, N-hydroxy-2-[(benzenesulfonyl)methyl]-3-(benzenesulfonyl)-propionamide], the negative-log Ki (pKi) is 6.80 at Stromelysin and 8.10 on Gelatinase.
Turning to `CCCCN1CC(=O)N(CC(CS(=O)(=O)c2ccc(OC)cc2)C(=O)NO)C1=O` (stereo not drawn) [Example 15, N-hydroxy-2-[methyl-3-(1-butylhydantoin)]-3-(4-methoxybenzenesulfonyl)-propionamide], the pKi at Stromelysin was 8.05; at Gelatinase, 9.47.

A word on the pKi: it is the Ki on a negative log10 scale, so that one unit is a factor of ten.

Values taken from US5847153A, “β-sulfonyl hydroxamic acids” (Pharmacia & Upjohn Company, priority 1997, dated 1998).
